According to patent publication US9242987B2, “Heterocyclyl pyrazolopyrimidine analogues as JAK inhibitors” (Cellzome Limited, priority 2009, dated 2016):

Assays:
JAK3 = target: T1, JAK3 (Homo sapiens, UniProt P52333); assay: Kinobeads assay, JAK3; format: binding; conditions: mixed Molt4/Ramos cell lysate, dot blot detection
T1 construct: endogenous in cells; host or cells: Mixed Molt4/Ramos lysate (1:2)
T1 sequence (P52333 1-1124): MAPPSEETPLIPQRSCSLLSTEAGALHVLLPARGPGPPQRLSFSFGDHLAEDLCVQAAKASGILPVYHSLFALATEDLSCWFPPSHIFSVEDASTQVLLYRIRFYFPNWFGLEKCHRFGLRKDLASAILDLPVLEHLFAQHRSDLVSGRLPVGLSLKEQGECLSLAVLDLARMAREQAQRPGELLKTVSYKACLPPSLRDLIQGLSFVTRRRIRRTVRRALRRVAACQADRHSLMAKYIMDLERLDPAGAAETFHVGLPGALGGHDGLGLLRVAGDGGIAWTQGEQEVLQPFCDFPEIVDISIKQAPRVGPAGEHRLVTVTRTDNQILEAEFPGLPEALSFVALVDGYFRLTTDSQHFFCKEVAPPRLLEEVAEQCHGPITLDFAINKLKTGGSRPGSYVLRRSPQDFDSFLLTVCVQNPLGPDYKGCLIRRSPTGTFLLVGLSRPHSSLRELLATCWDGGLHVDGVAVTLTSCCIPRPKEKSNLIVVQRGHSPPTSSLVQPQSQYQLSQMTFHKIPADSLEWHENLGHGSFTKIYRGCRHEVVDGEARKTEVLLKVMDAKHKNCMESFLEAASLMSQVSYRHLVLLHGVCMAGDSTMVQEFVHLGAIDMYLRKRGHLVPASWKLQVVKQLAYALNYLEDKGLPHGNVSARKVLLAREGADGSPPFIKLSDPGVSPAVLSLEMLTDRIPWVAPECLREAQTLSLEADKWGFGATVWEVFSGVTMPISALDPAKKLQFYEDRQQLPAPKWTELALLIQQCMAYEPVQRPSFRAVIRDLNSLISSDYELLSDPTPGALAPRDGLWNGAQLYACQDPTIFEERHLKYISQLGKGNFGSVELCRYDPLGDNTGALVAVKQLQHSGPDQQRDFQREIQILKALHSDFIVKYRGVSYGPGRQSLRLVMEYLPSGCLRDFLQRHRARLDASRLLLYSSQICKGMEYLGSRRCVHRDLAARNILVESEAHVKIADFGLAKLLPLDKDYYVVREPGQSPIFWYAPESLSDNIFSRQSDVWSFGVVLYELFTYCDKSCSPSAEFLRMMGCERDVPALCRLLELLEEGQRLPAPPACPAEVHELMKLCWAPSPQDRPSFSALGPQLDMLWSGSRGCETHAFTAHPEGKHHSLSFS
Method in brief: (§1)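 Competition pulldown: compound dilution series incubated 3 h in cold room with immobilized aminopyrido-pyrimidine beads and mixed Molt4/Ramos lysate (1:2, 10 mg/mL protein) in DP buffer pH 7.4 with NP40. Bead-bound JAK2/JAK3 eluted, quantified by antibody dot blot with infrared detection; IC50 from dose-response curves.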

JAK2 = target: T2, JAK2 (Homo sapiens, UniProt O60674); assay: Kinobeads assay, JAK2; format: binding; conditions: mixed Molt4/Ramos cell lysate, dot blot detection
T2 construct: endogenous in cells; host or cells: Mixed Molt4/Ramos lysate (1:2)
Method in brief: as §1

T2 sequence (O60674 whole entry): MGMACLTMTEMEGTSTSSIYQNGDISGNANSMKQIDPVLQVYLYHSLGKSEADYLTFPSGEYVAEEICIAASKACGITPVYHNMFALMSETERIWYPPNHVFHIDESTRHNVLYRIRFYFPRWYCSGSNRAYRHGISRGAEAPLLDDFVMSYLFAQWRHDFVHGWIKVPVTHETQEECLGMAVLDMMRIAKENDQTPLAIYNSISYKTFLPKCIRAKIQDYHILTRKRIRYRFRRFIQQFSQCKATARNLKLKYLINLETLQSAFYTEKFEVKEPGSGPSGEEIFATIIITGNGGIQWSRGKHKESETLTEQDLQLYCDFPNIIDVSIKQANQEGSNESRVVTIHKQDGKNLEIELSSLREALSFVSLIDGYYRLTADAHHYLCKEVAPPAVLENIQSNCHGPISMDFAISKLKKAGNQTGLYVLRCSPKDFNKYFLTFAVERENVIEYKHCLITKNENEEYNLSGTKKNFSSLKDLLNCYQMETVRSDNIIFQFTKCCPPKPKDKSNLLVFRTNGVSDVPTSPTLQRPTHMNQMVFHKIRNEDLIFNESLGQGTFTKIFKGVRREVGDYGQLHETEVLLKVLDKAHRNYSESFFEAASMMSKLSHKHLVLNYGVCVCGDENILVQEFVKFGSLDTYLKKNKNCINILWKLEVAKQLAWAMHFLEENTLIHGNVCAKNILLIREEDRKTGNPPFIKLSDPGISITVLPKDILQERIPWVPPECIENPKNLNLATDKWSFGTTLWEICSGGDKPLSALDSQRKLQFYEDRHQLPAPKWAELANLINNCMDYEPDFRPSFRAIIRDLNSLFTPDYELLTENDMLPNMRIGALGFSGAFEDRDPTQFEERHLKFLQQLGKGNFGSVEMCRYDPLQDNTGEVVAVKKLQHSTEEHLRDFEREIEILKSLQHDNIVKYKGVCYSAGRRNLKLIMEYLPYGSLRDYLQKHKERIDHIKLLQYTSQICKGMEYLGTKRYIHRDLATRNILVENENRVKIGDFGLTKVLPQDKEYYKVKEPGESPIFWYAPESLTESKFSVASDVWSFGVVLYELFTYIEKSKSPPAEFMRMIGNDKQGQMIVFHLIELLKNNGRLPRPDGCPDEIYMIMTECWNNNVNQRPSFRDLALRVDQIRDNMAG

Structure (SMILES)	IC50 (JAK3) [nM]	IC50 (JAK2) [nM]
OCCn1cc(Nc2ncc3cnn(Cc4c(F)cccc4C(F)(F)F)c3n2)cn1 [Example 261, 2-(4-((1-(2-Fluoro-6-(trifluoromethyl)benzyl)-1H-pyrazolo[3,4-d]pyrimidin-6-yl)amino)-1H-pyrazol-1-yl)ethanol]	< 100	1000 to 10000
OCCn1cc(Nc2ncc3cnn(Cc4c(F)c(F)cc(N5CCNCC5)c4F)c3n2)cn1 [Example 283, 2-(4-((1-(2,3,6-Trifluoro-5-(piperazin-1-yl)benzyl)-1H-pyrazolo[3,4-d]pyrimidin-6-yl)amino)-1H-pyrazol-1-yl)ethanol]	< 100	1000 to 10000
CNC(=O)Cn1cc(Nc2ncc3cnn(Cc4cccc(F)n4)c3n2)cn1 [Example 291, 2-(4-((1-((6-Fluoropyridin-2-yl)methyl)-1H-pyrazolo[3,4-d]pyrimidin-6-yl)amino)-1H-pyrazol-1-yl)-N-methylacetamide]	< 100	1000 to 10000
OCCn1cc(Nc2ncc3cnn(Cc4c(F)ccc(N5CCNCC5)c4F)c3n2)cn1 [Example 304, 2-(4-((1-(2,6-Difluoro-3-(piperazin-1-yl)benzyl)-1H-pyrazolo[3,4-d]pyrimidin-6-yl)amino)-1H-pyrazol-1-yl)ethanol]	< 100	1000 to 10000
Fc1ccccc1Cn1ncc2cnc(Nc3cnn(CC4CCNC4)c3)nc21 (centres unmarked) [Example 306, 1-(2-Fluorobenzyl)-N-(1-(pyrrolidin-3-ylmethyl)-1H-pyrazol-4-yl)-1H-pyrazolo[3,4-d]pyrimidin-6-amine]	< 100	100 to 1000
OCCn1cc(Nc2ncc3cnn(Cc4cccc(F)n4)c3n2)cn1 [Example 314, 2-(4-((1-((6-Fluoropyridin-2-yl)methyl)-1H-pyrazolo[3,4-d]pyrimidin-6-yl)amino)-1H-pyrazol-1-yl)ethanol]	< 100	100 to 1000

Results, then the molecule that gave them:

IC50 (JAK3) [nM]	IC50 (JAK2) [nM]	Structure (SMILES)
< 100	100 to 1000	CNC(=O)Cn1cc(Nc2ncc3cnn(Cc4ccccc4F)c3n2)cn1 [Example 290, 2-(4-((1-(2-Fluorobenzyl)-1H-pyrazolo[3,4-d]pyrimidin-6-yl)amino)-1H-pyrazol-1-yl)-N-methylacetamide]
< 100	1000 to 10000	O=C1COCCN1c1ccc(F)c(Cn2ncc3cnc(Nc4cnn(CCO)c4)nc32)c1F [Example 293, 4-(2,4-Difluoro-3-((6-((1-(2-hydroxyethyl)-1H-pyrazol-4-yl)amino)-1H-pyrazolo[3,4-d]pyrimidin-1-yl)methyl)phenyl)morpholin-3-one]
< 100	1000 to 10000	Cn1cc(Nc2ncc3cnn(Cc4c(F)ccc(N5CCNCC5)c4F)c3n2)cn1 [Example 301, 1-(2,6-Difluoro-3-(piperazin-1-yl)benzyl)-N-(1-methyl-1H-pyrazol-4-yl)-1H-pyrazolo[3,4-d]pyrimidin-6-amine]
< 100	1000 to 10000	O=C1CNCCN1c1ccc(F)c(Cn2ncc3cnc(Nc4cnn(CCO)c4)nc32)c1F [Example 302, 1-(2,4-Difluoro-3-((6-((1-(2-hydroxyethyl)-1H-pyrazol-4-yl)amino)-1H-pyrazolo[3,4-d]pyrimidin-1-yl)methyl)phenyl)piperazin-2-one]
